Data taken from ChEMBL document CHEMBL3272184.

How the values were obtained:
[1] = molecular target: T1, Acetylserotonin O-methyltransferase (Bos taurus) (UniProt P10950); assay: Inhibition of bovine pineal gland hydroxyindole O-methyltransferase using 24 to 210 uM S-adenosylmethionine substrate
T1 sequence (whole entry): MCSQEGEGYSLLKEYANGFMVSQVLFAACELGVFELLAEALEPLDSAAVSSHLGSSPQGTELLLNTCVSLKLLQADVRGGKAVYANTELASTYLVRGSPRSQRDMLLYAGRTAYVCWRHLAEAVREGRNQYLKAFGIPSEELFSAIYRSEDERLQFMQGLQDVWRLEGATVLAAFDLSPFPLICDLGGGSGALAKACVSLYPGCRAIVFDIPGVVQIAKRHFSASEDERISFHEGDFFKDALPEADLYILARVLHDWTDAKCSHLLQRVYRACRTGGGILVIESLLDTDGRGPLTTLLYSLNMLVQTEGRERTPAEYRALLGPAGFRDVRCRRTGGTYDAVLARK

[2] = molecular target: T2, Phenylethanolamine N-methyltransferase (Bos taurus) (UniProt P10938); assay: Inhibition of bovine adrenal medulla phenylethanolamine N-methyltransferase using 24 to 210 uM S-adenosylmethionine substrate
T2 sequence (whole entry): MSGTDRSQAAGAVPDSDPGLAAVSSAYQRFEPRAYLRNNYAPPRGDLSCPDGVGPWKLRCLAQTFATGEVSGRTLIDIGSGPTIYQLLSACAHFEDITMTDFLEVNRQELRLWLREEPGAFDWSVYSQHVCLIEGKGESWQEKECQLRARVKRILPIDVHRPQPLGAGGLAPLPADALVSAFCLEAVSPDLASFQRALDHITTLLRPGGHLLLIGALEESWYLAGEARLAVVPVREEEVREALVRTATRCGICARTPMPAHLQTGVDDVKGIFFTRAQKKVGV

[3] = molecular target: T3, Catechol O-methyltransferase (Rattus norvegicus) (UniProt P22734); assay: Inhibition of Sprague-Dawley rat liver catechol O-methyltransferase using 24 to 210 uM S-adenosylmethionine substrate
T3 sequence (whole entry): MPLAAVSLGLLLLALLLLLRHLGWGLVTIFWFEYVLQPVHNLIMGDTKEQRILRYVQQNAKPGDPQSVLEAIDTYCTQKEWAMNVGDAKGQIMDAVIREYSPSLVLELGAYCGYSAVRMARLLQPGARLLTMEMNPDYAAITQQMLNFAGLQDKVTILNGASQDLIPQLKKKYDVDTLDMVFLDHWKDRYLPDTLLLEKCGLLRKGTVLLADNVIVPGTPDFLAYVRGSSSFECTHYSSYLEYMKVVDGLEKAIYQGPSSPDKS

Kis [1] | Kis [2] | Kis [3] | SMILES
51.8 µM |  |  | Nc1ncnc2c1ncn2[C@@H]1C[C@@H](CSCC[C@H](N)C(=O)O)[C@@H](O)[C@H]1O
18.5 µM | 29 µM | 36.3 µM | Nc1ncnc2c1ncn2[C@@H]1O[C@H](CSCC[C@H](N)C(=O)O)[C@@H](O)[C@H]1O
